Data reported in article PMC4592935, “Application of Molecular Modeling to Development of New Factor Xa Inhibitors” (BioMed Research International, 2015).

Legend:
[1] = molecular target: T1, Human factor Xa (Homo sapiens, UniProt P00742); assay: Inhibition of factor Xa hydrolysis of chromogenic substrate S2765 in buffer; format: biochemical; conditions: for IC50 / Inhibition of hydrolysis rate specific to the factor Xa substrate in the buffer system IC50: substrate S2765 250 μM, Xa 0.5 nM, 20 mM HEPES pH 8.0; for IC50: read-out: Inhibition of hydrolysis rate specific to the factor Xa substrate in the buffer system IC50; for inhibitory activity against factor Xa (in words): in vitro, chromogenic substrate hydrolysis
T1 construct: It consists of light (139 residues) and heavy (303 residues) chains linked by a disulfide bridge; purchased Hematologic Technologies Inc. (USA)
T1 sequence (P00742 235-488 limits assumed): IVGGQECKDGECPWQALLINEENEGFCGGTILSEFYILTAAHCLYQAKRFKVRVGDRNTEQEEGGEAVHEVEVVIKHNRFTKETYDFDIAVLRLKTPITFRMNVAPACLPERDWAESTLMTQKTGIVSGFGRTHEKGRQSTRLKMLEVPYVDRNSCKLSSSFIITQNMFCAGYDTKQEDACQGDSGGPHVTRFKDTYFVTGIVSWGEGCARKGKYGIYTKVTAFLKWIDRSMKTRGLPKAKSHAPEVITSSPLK
T1 sequence (P00742 41-179 partner limits assumed): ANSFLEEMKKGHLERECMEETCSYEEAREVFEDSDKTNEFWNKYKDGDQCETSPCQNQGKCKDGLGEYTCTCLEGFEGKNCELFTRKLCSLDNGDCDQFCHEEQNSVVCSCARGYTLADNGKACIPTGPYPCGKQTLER
Protocol: Human factor Xa was obtained from Hematologic Technologies Inc. (USA). The Xa-specific chromogenic substrate S2765 (Z-D-Arg-Gly-Arg-pNA·2HCl) was purchased from Chromogenix (USA). All other chemicals were of reagent and analytical grade.
The kinetics of factor Xa inhibition was determined from the hydrolysis reaction of a specific substrate by the enzyme in the presence of tested substances. The chromogenic substrate S2765 (Z-D-Arg-Gly-Arg-pNA·2HCl, Chromogenix, Instrumentation Laboratory Company, Lexington, MA 02421, USA) was used for registering accumulation of p-nitroaniline as a colored product by spectrophotometer.
Plate wells were filled with 20 mM HEPES (pH 8.0) containing 140 mM NaCl and 0.1% polyethylene glycol (molecular weight 6000 Da). Thereafter, the substrate was sequentially added to each well (final concentration, 250 μM), followed by the substance being tested (to a final concentration that was varied) and Xa (final concentration, 0.5 nM). The hydrolysis rate was monitored spectrophotometrically at 405 nm (absorption maximum of the reaction product p-nitroaniline).
The initial rate was determined as the slope of the linear part of the kinetic curve over the first 10 to 20 min of measurement. The inhibitory effect was expressed as the percentage of reduction of the initial hydrolysis rate. The reaction rate in the absence of any inhibitor was taken as 100%. Each result is the mean of two parallel determinations. The inhibitor concentration was determined decreasing hydrolysis rate to 50% (IC50). […] Graphs of optical density against time were plotted.

[2] = Solubility as observed during factor Xa testing; format: physicochemical; conditions: limited the inhibition that could be achieved
Source text: According to the results of our molecular modeling with SOL and DISCORE programs 17 compounds have been selected and investigated in the frame of in vitro experiments.

Row | IC50 [1] [µM] | Compound | also measured
1 | 2.3 | 6-[(1,3-benzothiazol-2-ylthio)methyl]-2-[(5,6-dimethylquinazolin-2-yl)amino]pyrimidin-4(3H)-one [VGY-0006889] | –
2 | – | Cc1ccc(C)c(N2C(=O)CC(N3CCN(Cc4ccc5c(c4)OCO5)CC3)C2=O)c1 (stereo not drawn) [VGY-0015091] | inhibitory activity against factor Xa (in words) [1]: did not show any inhibitory activity; Inhibition of hydrolysis rate specific to the factor Xa substrate in the buffer system IC50 [1]: Not inhibited
3 | 19 | CC1(c2ccc(Cl)cc2)CC(C)(C)N(C(=O)CSc2ccc(Cl)cc2)c2ccccc21 (stereo not drawn) [VGY-0016013] | –
4 | – | CN1CCN(C2CC(=O)N(c3ccc(Oc4ccccc4)cc3)C2=O)CC1 (stereo not drawn) [VGY-0017263] | inhibitory activity against factor Xa (in words) [1]: did not show any inhibitory activity; Inhibition of hydrolysis rate specific to the factor Xa substrate in the buffer system IC50 [1]: Not inhibited
5 | 6.3 | COc1cc2c3c(c1)-c1c(sn(-c4ccc(Oc5ccc(Cl)cc5)cc4)c1=S)C(C)(C)N3C(=O)C2=O [VGY-0018521] | –
6 | 10 | Clc1ccc2nc(Nc3nc(-c4ccccc4)c4ccccc4n3)nc(-c3ccccc3)c2c1 [VGY-0018863] | –
7 | 1.8 | CC1=CC(C)(C)N2C(=O)C(=C3SC(=S)NC3=O)c3cc(OC(=O)C=Cc4cccc([N+](=O)[O-])c4)cc1c32 [VGY-0018989, 4,4,6-trimethyl-2-oxo-1-(4-oxo-2-thioxo-1,3-thiazolidin-5-ylidene)-1,2-dihydro-4H-pyrrolo[3,2,1-ij]quinolin-8-yl-3-(3-nitrophenyl)prop-2-enoate] | –
8 | 20.6 | CC1(c2ccc(Cl)cc2)CC(C)(C)N2C(=O)/C(=N/c3ccc(Oc4ccccc4)cc3)c3cccc1c32 (stereo not drawn) [VGY-0027889] | –
9 | 3.1 | COc1ccc(C2CC(=O)c3cnc(Nc4nc(C)c5cc(C)c(C)cc5n4)nc3C2)cc1 (stereo not drawn) [VGY-0035262, 7-(4-methoxyphenyl)-2-[(4,6,7-trimethylquinazolin-2-yl)amino]-7,8-dihydroquinazolin-5(6H)-one] | –
10 | 10 | Cc1cc2nc(Nc3ncc4c(n3)CC(c3cccs3)CC4=O)nc(C)c2cc1C (stereo not drawn) [VGY-0037900] | –
11 | 5 | O=C1CC(c2cccc(Cl)c2)Cc2nc(N3CCN(Cc4ccc5c(c4)OCO5)CC3)ncc21 (stereo not drawn) [VGY-0037972] | –
12 | – | O=C1CC(c2ccco2)Cc2nc(N3CCN(Cc4ccc5c(c4)OCO5)CC3)ncc21 (stereo not drawn) [VGY-0038035] | solubility (in words) [2]: poor solubility; inhibition at 51 µM ([1]; at concentration of 51 μM): 34%; inhibitory activity against factor Xa (in words) [1]: weakly inhibited; Inhibition of hydrolysis rate specific to the factor Xa substrate in the buffer system IC50 [1]: Weakly inhibited
13 | – | Cc1nc(N2CCN(C)CC2)[nH]c(=O)c1Cc1ccc(C(C)C)cc1 [VGY-0039772] | inhibitory activity against factor Xa (in words) [1]: did not show any inhibitory activity; Inhibition of hydrolysis rate specific to the factor Xa substrate in the buffer system IC50 [1]: Not inhibited
14 | 40 | CC1CC2(CCCC2)N2C(=O)C3(NCCc4c3[nH]c3ccccc43)c3cc(F)cc1c32 (stereo not drawn) [VGY-0041455] | –
15 | 2 | COc1cccc(NC(=O)c2nnc3c(-c4ccc(Br)cc4)c(C)nn3c2C)c1 [VGY-0101011, 8-(4-bromophenyl)-N-(3-methoxyphenyl)-4,7-dimethylpyrazolo[5,1-c][1,2,4]triazine-3-carboxamide] | –
16 | – | CCOc1ccc(N2CN(CCCN3CCOCC3)Cn3c2nc(C)c(C)c3=O)cc1 [VGY-0160076] | inhibitory activity against factor Xa (in words) [1]: did not show any inhibitory activity; Inhibition of hydrolysis rate specific to the factor Xa substrate in the buffer system IC50 [1]: Not inhibited
17 | 12 | Cc1ccc2nc(Nc3nc(-c4cnc(N5CCCCC5)nc4C)cc(=O)[nH]3)nc(C)c2c1 [VGY-0163641] | –
